Experimental data as given in US20210179655A1, “Prodrugs of a JAK Inhibitor Compound for Treatment of Gastrointestinal Inflammatory Disease” (THERAVANCE BIOPHARMA R&D IP, LLC, priority 2015, published 2021).

Key:
[1] = system: oxazolone-induced colitis; assay: Mouse model of oxazolone-induced colitis; format: in vivo
Protocol: Oxazolone-induced colitis is an experimental model that has a histological resemblance to human ulcerative colitis (Heller et al. […], 2002, 17, 629-638). Adult BALB/C mice (25-28 g, 9-12 weeks of age) from BioNeeds (India) were used in the assay. On day 1, animals were lightly anesthetized with isoflurane and the hairs between the shoulder were carefully removed before oxazolone (6 mg/mouse, 100 μL, 4:1 acetone: olive oil formulation) or vehicle solution was slowly applied for skin sensitization. Six days after skin sensitization, the mice were fasted overnight, anesthetized with ketamine and xylazine administered IP, and a 1 mL syringe filled with oxazolone solution, was inserted carefully ˜3.8 cm into the colon of the mouse. Animals were kept in a head down position and oxazolone (0.5 mg/50 μL/mouse in 50% ethanol) or 50% ethanol/saline was rectally instilled very slowly over a minute. The mice were held vertically (head down) for another minute to ensure that the entire oxazolone solution remained inside the colon. Drug treatment (PO, BID or TID) or vehicle was initiated the evening prior to the oxazolone intrarectal (IR) challenge. On both first (Day 1) and second (Day 2) days post-oxazolone IR challenge, the Disease Activity Index (DAI) was assessed by treatment-blinded experimenters for each mouse, according to the following subscores: stool consistency (0, normal; 2, loose; 4, diarrhea), gross bleeding and hemoccult test (0, absence; 2, blood tinged; 4, overt blood presence), and weight loss (0, none; 1, 1%-5%; 2, 6%-10%; 3, 11%-15%; 4, more than 15%); DAI=average of (stool consistency+blood presence+weight loss scores).
An area-under-the-curve (AUC) calculation based on total DAI scores was performed to track disease progression during the course of the experiment. AUC for each experimental group was calculated as: AUC=[(Day 1−Day 0)*Average (DAI Score of Day 0 & Day 1)]+[(Day 2−Day 1)*Average (DAI Score of Day 1 & Day 2)]. A Student's t-test compared the DAI AUC score of the vehicle/vehicle and vehicle/oxazolone groups to evaluate whether disease was induced following oxazolone treatment. This was followed by a one way ANOVA, with Dunnett's post hoc test, to compare the DAI AUC score of the vehicle/oxazolone and test compound/oxazolone groups. Statistical significance was defined by an α level set at p<0.05.

[2] = system: splenic NK cells; assay: Immunosuppression effects in mouse splenic natural killer (NK) cells; format: in vivo
Protocol: Adult male Balb/C mice (12-14 weeks of age) from Harlan were used for the study. […] Spleens were harvested 30 min or 3 h post last dose and crushed immediately for cell subtype staining. Prior to fixation, fluorophore-labelled antibodies for CD19 (FITC; B cells), CD3e (PE; pan T cells) and DX5 (APC; NK cells) were incubated with splenocyte samples from each animal to allow for simultaneous, multiple subtype % analysis on the flow cytometer. The number of total spleen cells for each animal was measured by Scepter™ 2.0 Handheld Automated Cell Counter.
The absolute number of lymphocyte subtype population (e.g., splenic B, T and NK cells) was calculated from the percentage of each subtype times total spleen cells for each animal. A one way ANOVA, with Dunnett's post hoc test, was used to compare the splenic lymphocytes number of the vehicle and test compound groups. The a level was set at p<0.05. Data were presented as the mean SEM for each group.

[3] = system: Janus kinase (JAK) family of enzymes, non-JAK enzymes, G-protein coupled receptors, ion channels and transporters; assay: Affinity/potency profiling at JAK, non-JAK enzymes, receptors, ion channels and transporters
[4] = biological target: TYK2 (Homo sapiens, UniProt P29597); assay: Biochemical JAK kinase assay (LanthaScreen) Tyk2
Sequence of TYK2 (P29597 whole entry): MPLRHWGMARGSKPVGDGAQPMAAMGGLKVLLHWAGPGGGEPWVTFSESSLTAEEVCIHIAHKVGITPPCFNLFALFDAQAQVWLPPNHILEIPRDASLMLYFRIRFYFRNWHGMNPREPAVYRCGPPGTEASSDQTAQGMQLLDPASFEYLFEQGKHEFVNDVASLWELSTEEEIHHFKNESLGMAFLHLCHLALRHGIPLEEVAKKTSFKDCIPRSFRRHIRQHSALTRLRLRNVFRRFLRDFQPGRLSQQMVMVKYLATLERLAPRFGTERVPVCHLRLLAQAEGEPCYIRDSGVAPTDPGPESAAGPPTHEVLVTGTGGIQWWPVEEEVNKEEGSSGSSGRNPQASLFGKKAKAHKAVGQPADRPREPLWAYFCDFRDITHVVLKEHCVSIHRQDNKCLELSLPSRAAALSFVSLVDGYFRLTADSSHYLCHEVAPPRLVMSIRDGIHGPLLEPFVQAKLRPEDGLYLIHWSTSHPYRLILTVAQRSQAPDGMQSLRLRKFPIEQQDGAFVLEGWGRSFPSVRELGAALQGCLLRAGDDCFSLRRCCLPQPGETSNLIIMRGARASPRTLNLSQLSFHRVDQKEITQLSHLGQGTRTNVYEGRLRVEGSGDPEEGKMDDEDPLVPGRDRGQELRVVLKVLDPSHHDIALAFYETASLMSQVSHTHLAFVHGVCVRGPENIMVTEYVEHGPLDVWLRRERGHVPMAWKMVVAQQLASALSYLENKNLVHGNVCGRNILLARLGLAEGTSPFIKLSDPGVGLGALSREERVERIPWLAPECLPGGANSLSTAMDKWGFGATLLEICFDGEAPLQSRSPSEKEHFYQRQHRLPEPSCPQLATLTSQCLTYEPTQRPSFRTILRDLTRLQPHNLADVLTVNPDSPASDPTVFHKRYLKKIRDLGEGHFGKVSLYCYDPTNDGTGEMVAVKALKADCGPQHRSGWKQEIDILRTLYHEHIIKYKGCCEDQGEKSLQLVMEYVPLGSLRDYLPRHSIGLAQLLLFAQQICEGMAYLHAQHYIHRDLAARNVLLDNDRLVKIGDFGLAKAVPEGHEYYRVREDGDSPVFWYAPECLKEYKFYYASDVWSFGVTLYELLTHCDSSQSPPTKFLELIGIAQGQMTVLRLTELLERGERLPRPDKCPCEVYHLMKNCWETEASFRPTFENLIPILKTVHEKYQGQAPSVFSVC
Protocol: A panel of four LanthaScreen JAK biochemical assays (JAK1, 2, 3 and Tyk2) were carried in a common kinase reaction buffer (50 mM HEPES, pH 7.5, 0.01% Brij-35, 10 mM MgCl2, and 1 mM EGTA). Recombinant GST-tagged JAK enzymes and a GFP-tagged STAT1 peptide substrate were obtained from Life Technologies.
Serially diluted compounds were pre-incubated with each of the four JAK enzymes and the substrate in white 384-well microplates (Corning) at ambient temperature for 1 h. ATP was subsequently added to initiate the kinase reactions in 10 μL total volume, with 1% DMSO. […] The JAK1 kinase activity was also tested at 1 mM ATP concentration. […] The plates were allowed to incubate at ambient temperature for 1 h before being read on the EnVision reader (Perkin Elmer).
For dose-response analysis, percent inhibition data were plotted vs. compound concentrations, and IC50 values were determined from a 4-parameter robust fit model with the Prism software (GraphPad Software). Results were expressed as pIC50 (negative logarithm of IC50) and subsequently converted to pKi (negative logarithm of dissociation constant, Ki) using the Cheng-Prusoff equation.

## C[C@@H]1CCN(C(=O)CC#N)C[C@@H]1N(C)c1ncnc2c1ccn2C(=O)N(C)CCN(C)C(=O)OCc1ccc(O[C@@H]2O[C@H](C(=O)O)[C@@H](O)[C@H](O)[C@H]2O)c([N+](=O)[O-])c1 [Compound 1, (2S,3S,4S,5R,6S)-6-(4-((((2-(4-(((3R,4R)-1-(2-cyanoacetyl)-4-methylpiperidin-3-yl)(methyl)amino)-N-methyl-7H-pyrrolo[2,3-d]pyrimidine-7-carboxamido)ethyl)(methyl)carbamoyl)oxy)methyl)-2-nitrophenoxy)-3,4,5-trihydroxytetrahydro-2H-pyran-2-carboxylic acid]
[1]; 3, 10, and 60 mg/kg, PO, BID, similar magnitude to tofacitinib 30 and 60 mg/kg
  reversal of oxazolone-induced colitis (DAI AUC score): significant reversal
[1]; Effective dose that exhibits a comparable pharmacological effect in the oxazolone model compared to its vehicle
  In vivo efficacy (oxazolone colitis), effective dose: 3 mg/kg
[2]; PO (BID) doses up to 10 mg/kg (maximum dose tested), three days, naïve mice
  splenic NK cell counts: unaffected
[2]; mouse, oral dosing for three days
  Systemic functional activity (splenic NK depletion): >10 mg/kg
[3]
  affinity for, or potency at, JAK enzymes, non-JAK enzymes, GPCRs, ion channels and transporters: no significant affinity for, or potency at
[4]
  Ki: > 1000 nM
